Measured values taken from PMC3268775 (Journal of the American Chemical Society, 2012).

Assays:
pKa of [Re]–F3Y–βC19 = type: physicochemical; conditions: pH 8.3
[1] = pH 8.3; cited from earlier work
α2: β2 complex = conditions: cited from earlier work

For `N[C@@H](Cc1c(F)cc(O)c(F)c1F)C(=O)O` [F3Y, 2,3,6-trifluorotyrosine], which F3Y deprotonated (pKa of [Re]–F3Y–βC19) is on record?
Its F3Y deprotonated is ~ 94%.

And the “reduction potential of F3Y above tyrosine” value [1]?
The value was ~ 180 mV.

B1: wild type α2: β2 complex: E. coli class Ia ribonucleotide reductase (protein, UniProt P00452 1-761; P69924 2-376, looked up)
Ribonucleoside-diphosphate … 1: MNQNLLVTKRDGSTERINLDKIHRVLDWAAEGLHNVSISQVELRSHIQFYDGIKTSDIHETIIKAAADLISRDAPDYQYLAARLAIFHLRKKAYGQFEPPALYDHVVKMVEMGKYDNHLLEDYTEEEFKQMDTFIDHDRDMTFSYAAVKQLEGKYLVQNRVTGEIYESAQFLYILVAACLFSNYPRETRLQYVKRFYDAVSTFKISLPTPIMSGVRTPTRQFSSCVLIECGDSLDSINATSSAIVKYVSQRAGIGINAGRIRALGSPIRGGEAFHTGCIPFYKHFQTAVKSCSQGGVRGGAATLFYPMWHLEVESLLVLKNNRGVEGNRVRHMDYGVQINKLMYTRLLKGEDITLFSPSDVPGLYDAFFADQEEFERLYTKYEKDDSIRKQRVKAVELFSLMMQERASTGRIYIQNVDHCNTHSPFDPAIAPVRQSNLCLEIALPTKPLNDVNDENGEIALCTLSAFNLGAINNLDELEELAILAVRALDALLDYQDYPIPAAKRGAMGRRTLGIGVINFAYYLAKHGKRYSDGSANNLTHKTFEAIQYYLLKASNELAKEQGACPWFNETTYAKGILPIDTYKKDLDTIANEPLHYDWEALRESIKTHGLRNSTLSALMPSETSSQISNATNGIEPPRGYVSIKASKDGILRQVVPDYEHLHDAYELLWEMPGNDGYLQLVGIMQKFIDQSISANTNYDPSRFPSGKVPMQQLLKDLLTAYKFGVKTLYYQNTRDGAEDAQDDLVPSIQDDGCESGACKI
Ribonucleoside-diphosphate … 2: AYTTFSQTKNDQLKEPMFFGQPVNVARYDQQKYDIFEKLIEKQLSFFWRPEEVDVSRDRIDYQALPEHEKHIFISNLKYQTLLDSIQGRSPNVALLPLISIPELETWVETWAFSETIHSRSYTHIIRNIVNDPSVVFDDIVTNEQIQKRAEGISSYYDELIEMTSYWHLLGEGTHTVNGKTVTVSLRELKKKLYLCLMSVNALEAIRFYVSFACSFAFAERELMEGNAKIIRLIARDEALHLTGTQHMLNLLRSGADDPEMAEIAEECKQECYDLFVQAAQQEKDWADYLFRDGSMIGLNKDILCQYVEYITNIRMQAVGLDLPFQTRSNPIPWINTWLVSDNVQVAPQEVEVSSYLVGQIDSEVDTDDLSNFQL
With B1 as the molecule, how does the baseline catalytic turnover (α2: β2 complex) read?
Its baseline catalytic turnover is 2 to 10 s⁻¹.
